{
  "source": "patent US9181305B2",
  "about": "“Exendin-4 peptide analogues” (SANOFI, priority 2012, dated 2015)",
  "molecular_target": "T1, human GLP-1 receptor (hGLP-1 R) (Homo sapiens, UniProt P43220)",
  "T1 construct": "expressed in transfected cells; host or cells: HEK-293",
  "T1 sequence (P43220 24-463)": "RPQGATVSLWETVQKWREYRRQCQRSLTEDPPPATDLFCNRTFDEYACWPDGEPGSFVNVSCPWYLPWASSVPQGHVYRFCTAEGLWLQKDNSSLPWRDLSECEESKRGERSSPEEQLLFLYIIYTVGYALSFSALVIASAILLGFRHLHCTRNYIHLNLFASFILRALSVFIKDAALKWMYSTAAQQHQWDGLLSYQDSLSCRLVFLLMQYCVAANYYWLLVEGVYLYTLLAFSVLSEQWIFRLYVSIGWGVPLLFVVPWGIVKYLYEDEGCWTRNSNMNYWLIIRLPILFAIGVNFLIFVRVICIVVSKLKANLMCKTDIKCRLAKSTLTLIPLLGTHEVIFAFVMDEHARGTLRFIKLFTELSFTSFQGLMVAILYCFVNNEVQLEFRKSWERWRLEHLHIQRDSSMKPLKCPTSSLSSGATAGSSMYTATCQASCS",
  "experiment": "cAMP response (HTRF) of HEK-293 cells stably expressing human GLP-1 receptor",
  "format": "cell-based",
  "settings": "HEK-293 cells expressing human GLP-1 receptor, cAMP formation",
  "procedure": "cAMP content of cells was determined using a kit from Cisbio Corp. (cat. no. 62AM4PEC) based on HTRF (Homogenous Time Resolved Fluorescence). For preparation, cells were split into T175 culture flasks and grown overnight to near confluency in medium (DMEM/10% FBS). Medium was then removed and cells washed with PBS lacking calcium and magnesium, followed by proteinase treatment with accutase (Sigma-Aldrich cat. no. A6964). Detached cells were washed and resuspended in assay buffer (1×HBSS; 20 mM HEPES, 0.1% BSA, 2 mM IBMX) and cellular density determined. […] For measurement, 25 μl of test compound in assay buffer was added to the wells, followed by incubation for 30 minutes at room temperature.",
  "note": "*1 amine or outer side, *2 acyl side, *3 side chain or, on linkers, in order; H or OH if unused. Where a SMILES comes first, the peptide text is derived from it. Side-chain parts run from the residue outwards. [ ]: non-standard residue; d: D form. The star is where a group is joined. γGlu = O=C(O)[C@H](CCC(=O)[*:2])N[*:1]; Palmitoyl = CCCCCCCCCCCCCCCC(=O)*; Aib = CC(C)(N)C(=O)O",
  "data": [
    {"compound": "CCCCCCCCCCCCCCCC(=O)N[C@@H](CCC(=O)NCCCC[C@H](NC(=O)[C@@H]1CCCN1C(=O)[C@@H]1CCCN1C(=O)[C@@H]1CCCN1C(=O)[C@H](C)NC(=O)CNC(=O)[C@H](CO)NC(=O)[C@H](CO)NC(=O)[C@@H]1CCCN1C(=O)CNC(=O)CNC(=O)[C@H](CC(N)=O)NC(=O)[C@H](CCCCN)NC(=O)[C@H](CC(C)C)NC(=O)[C@H](Cc1c[nH]c2ccccc12)NC(=O)[C@H](CCC(=O)O)NC(=O)[C@@H](NC(=O)[C@H](Cc1ccccc1)NC(=O)[C@H](CC(=O)O)NC(=O)[C@H](CCC(N)=O)NC(=O)[C@H](C)NC(=O)[C@H](CCCNC(=N)N)NC(=O)[C@H](CCCNC(=N)N)NC(=O)[C@H](CO)NC(=O)[C@H](CC(=O)O)NC(=O)[C@H](CCSC)NC(=O)[C@H](CCC(N)=O)NC(=O)[C@H](CCCCN)NC(=O)[C@H](CO)NC(=O)[C@H](CC(C)C)NC(=O)[C@H](CC(=O)O)NC(=O)[C@H](CO)NC(=O)[C@@H](NC(=O)[C@H](Cc1ccccc1)NC(=O)[C@@H](NC(=O)CNC(=O)[C@H](CCC(N)=O)NC(=O)[C@H](CO)NC(=O)[C@@H](N)Cc1c[nH]cn1)[C@@H](C)O)[C@@H](C)O)[C@@H](C)CC)C(N)=O)C(=O)O", "note": "[(6)]", "values": [
      {"measurement": "EC50", "value": 3.1, "unit": "pM"}
    ]},
    {"compound": "CC[C@H](C)[C@H](NC(=O)[C@H](Cc1ccccc1)NC(=O)[C@H](CC(=O)O)NC(=O)[C@H](CCCCN)NC(=O)[C@H](C)NC(=O)[C@H](CCCNC(=N)N)NC(=O)[C@H](CCCNC(=N)N)NC(=O)[C@H](CCC(=O)O)NC(=O)[C@H](CCC(=O)O)NC(=O)[C@H](CCSC)NC(=O)[C@H](CCC(N)=O)NC(=O)[C@H](CCCCN)NC(=O)[C@H](CO)NC(=O)[C@H](CC(C)C)NC(=O)[C@H](CC(=O)O)NC(=O)[C@H](CO)NC(=O)[C@@H](NC(=O)[C@H](Cc1ccccc1)NC(=O)[C@@H](NC(=O)CNC(=O)[C@H](CCC(N)=O)NC(=O)[C@H](CO)NC(=O)[C@@H](N)Cc1c[nH]cn1)[C@@H](C)O)[C@@H](C)O)C(=O)N[C@@H](CCC(=O)O)C(=O)N[C@@H](Cc1c[nH]c2ccccc12)C(=O)N[C@@H](CC(C)C)C(=O)N[C@@H](CCCCN)C(=O)N[C@@H](CC(N)=O)C(=O)NCC(=O)NCC(=O)N1CCC[C@H]1C(=O)N[C@@H](CO)C(=O)N[C@@H](CO)C(=O)NCC(=O)N[C@@H](C)C(=O)N1CCC[C@H]1C(=O)N1CCC[C@H]1C(=O)N1CCC[C@H]1C(=O)N[C@@H](CO)C(N)=O", "note": "[(16)] (H-HSQGTFTSDLSKQMEERRAKDFIEWLKNGGPSSGAPPPS-NH2)", "values": [
      {"measurement": "EC50", "value": 7.6, "unit": "pM"}
    ]},
    {"compound": "CCCCCCCCCCCCCCCC(=O)NCCCC[C@H](NC(=O)[C@H](CO)NC(=O)[C@@H]1CCCN1C(=O)[C@@H]1CCCN1C(=O)[C@@H]1CCCN1C(=O)[C@H](C)NC(=O)CNC(=O)[C@H](CO)NC(=O)[C@H](CO)NC(=O)[C@@H]1CCCN1C(=O)CNC(=O)CNC(=O)[C@H](CC(N)=O)NC(=O)[C@H](CCCCN)NC(=O)[C@H](CC(C)C)NC(=O)[C@H](Cc1c[nH]c2ccccc12)NC(=O)[C@H](CCC(=O)O)NC(=O)[C@@H](NC(=O)[C@H](Cc1ccccc1)NC(=O)[C@H](CC(=O)O)NC(=O)[C@H](CCC(N)=O)NC(=O)[C@H](C)NC(=O)[C@H](CCCNC(=N)N)NC(=O)[C@H](CCCNC(=N)N)NC(=O)[C@H](CO)NC(=O)[C@H](CC(=O)O)NC(=O)[C@H](CCSC)NC(=O)[C@H](CCC(N)=O)NC(=O)[C@H](CCCCN)NC(=O)[C@H](CO)NC(=O)[C@H](CC(C)C)NC(=O)[C@H](CC(=O)O)NC(=O)[C@H](CO)NC(=O)[C@@H](NC(=O)[C@H](Cc1ccccc1)NC(=O)[C@@H](NC(=O)CNC(=O)[C@H](CCC(N)=O)NC(=O)[C@@H](CO)NC(=O)[C@@H](N)Cc1c[nH]cn1)[C@@H](C)O)[C@@H](C)O)[C@@H](C)CC)C(N)=O", "note": "[(26)]", "values": [
      {"measurement": "EC50", "value": 9.7, "unit": "pM"}
    ]},
    {"compound": "CC[C@H](C)[C@H](NC(=O)[C@H](Cc1ccccc1)NC(=O)[C@H](CC(=O)O)NC(=O)[C@H](CCC(N)=O)NC(=O)[C@H](C)NC(=O)[C@H](CCCNC(=N)N)NC(=O)[C@H](CCCNC(=N)N)NC(=O)[C@H](CO)NC(=O)[C@H](CC(=O)O)NC(=O)[C@H](CCSC)NC(=O)[C@H](CCC(N)=O)NC(=O)[C@H](CCCCN)NC(=O)[C@H](CO)NC(=O)[C@H](CC(C)C)NC(=O)[C@H](CC(=O)O)NC(=O)[C@H](CO)NC(=O)[C@@H](NC(=O)[C@H](Cc1ccccc1)NC(=O)[C@@H](NC(=O)CNC(=O)[C@H](CCC(N)=O)NC(=O)[C@H](C)NC(=O)[C@@H](N)Cc1c[nH]cn1)[C@@H](C)O)[C@@H](C)O)C(=O)N[C@@H](CCC(=O)O)C(=O)N[C@@H](Cc1c[nH]c2ccccc12)C(=O)N[C@@H](CC(C)C)C(=O)N[C@@H](CCCCN)C(=O)N[C@@H](CC(N)=O)C(=O)NCC(=O)NCC(=O)N1CCC[C@H]1C(=O)N[C@@H](CO)C(=O)N[C@@H](CO)C(=O)NCC(=O)N[C@@H](C)C(=O)N1CCC[C@H]1C(=O)N1CCC[C@H]1C(=O)N1CCC[C@H]1C(=O)N[C@@H](CO)C(N)=O", "note": "[(39)] (H-HAQGTFTSDLSKQMDSRRAQDFIEWLKNGGPSSGAPPPS-NH2)", "values": [
      {"measurement": "EC50", "value": 4.6, "unit": "pM"}
    ]},
    {"compound": "CCCCCCCCCCCCCCCC(=O)N[C@@H](CCC(=O)NCCCC[C@H](NC(=O)[C@@H]1CCCN1C(=O)[C@@H]1CCCN1C(=O)[C@@H]1CCCN1C(=O)[C@H](C)NC(=O)CNC(=O)[C@H](CO)NC(=O)[C@H](CO)NC(=O)[C@@H]1CCCN1C(=O)CNC(=O)CNC(=O)[C@H](CC(N)=O)NC(=O)[C@H](CCCCN)NC(=O)[C@H](CC(C)C)NC(=O)[C@H](Cc1c[nH]c2ccccc12)NC(=O)[C@H](CCC(=O)O)NC(=O)[C@@H](NC(=O)[C@H](Cc1ccccc1)NC(=O)[C@H](CC(=O)O)NC(=O)[C@H](CCC(N)=O)NC(=O)[C@H](C)NC(=O)[C@H](CCCNC(=N)N)NC(=O)[C@H](CCCNC(=N)N)NC(=O)[C@H](CO)NC(=O)[C@H](CC(=O)O)NC(=O)[C@H](CCSC)NC(=O)[C@H](CCC(N)=O)NC(=O)[C@H](CCCCN)NC(=O)[C@H](CO)NC(=O)[C@H](CC(C)C)NC(=O)[C@H](CC(=O)O)NC(=O)[C@H](CO)NC(=O)[C@@H](NC(=O)[C@H](Cc1ccccc1)NC(=O)[C@@H](NC(=O)CNC(=O)[C@H](CCC(N)=O)NC(=O)[C@@H](CO)NC(=O)[C@@H](N)Cc1c[nH]cn1)[C@@H](C)O)[C@@H](C)O)[C@@H](C)CC)C(N)=O)C(=O)O", "note": "[(51)]", "values": [
      {"measurement": "EC50", "value": 5.8, "unit": "pM"}
    ]},
    {"compound": "CCCCCCCCCCCCCCCC(=O)N[C@@H](CCC(=O)NCCCC[C@H](NC(=O)[C@@H]1CCCN1C(=O)[C@@H]1CCCN1C(=O)[C@@H]1CCCN1C(=O)[C@H](C)NC(=O)CNC(=O)[C@H](CO)NC(=O)[C@H](CO)NC(=O)[C@@H]1CCCN1C(=O)CNC(=O)CNC(=O)[C@H](CC(N)=O)NC(=O)[C@H](CCCCN)NC(=O)[C@H](CC(C)C)NC(=O)[C@H](Cc1c[nH]c2ccccc12)NC(=O)[C@H](CCC(=O)O)NC(=O)[C@@H](NC(=O)[C@H](Cc1ccccc1)NC(=O)[C@H](CC(=O)O)NC(=O)[C@H](CCC(N)=O)NC(=O)[C@H](C)NC(=O)[C@H](CCCNC(=N)N)NC(=O)[C@H](CCCNC(=N)N)NC(=O)[C@H](CO)NC(=O)[C@H](CC(=O)O)NC(=O)[C@H](CCSC)NC(=O)[C@H](CCC(N)=O)NC(=O)[C@H](CCCCN)NC(=O)[C@H](CO)NC(=O)[C@H](CC(C)C)NC(=O)[C@H](CC(=O)O)NC(=O)[C@H](CO)NC(=O)[C@@H](NC(=O)[C@H](Cc1ccccc1)NC(=O)[C@@H](NC(=O)CNC(=O)[C@H](CCC(N)=O)NC(=O)C(C)(C)NC(=O)[C@@H](N)Cc1c[nH]cn1)[C@@H](C)O)[C@@H](C)O)[C@@H](C)CC)C(N)=O)C(=O)O", "note": "[(52)] (H-H[Aib]QGTFTSDLSKQMDSRRAQDFIEWLKNGGPSSGAPPPK([γGlu-Palmitoyl])-NH2)", "values": [
      {"measurement": "EC50", "value": 4.1, "unit": "pM"}
    ]}
  ]
}
